Experimental data: patent publication US20040034040A1, “Use of thienopyrimidines” (priority 2000, published 2004)
Where a name gives a salt, the structure may show the parent alone.

- melting point: 229 °C
Structure (SMILES): COc1ccc(CNc2nc(CCC(=O)O)nc3sc4c(c23)CCCC4)cc1Cl (as salt: salt) [Example 2, 3-[4-(3-chloro-4-methoxybenzylamino)-5,6,7,8-tetrahydro-[1]-benzothieno-[2,3-d]-pyrimidin-2-yl]propionic acid]
